What all share (assay): relative viability (nuclei count vs DMSO), 5 days (fraction); higher = more cells survive
Compound in the experiment “FH535 + Foretinib”: CC1=C(C=CC(=C1)[N+](=O)[O-])NS(=O)(=O)C2=C(C=CC(=C2)Cl)Cl [FH535] + COc1cc2c(Oc3ccc(NC(=O)C4(C(=O)Nc5ccc(F)cc5)CC4)cc3F)ccnc2cc1OCCCN1CCOCC1 [Foretinib] (partner 0.25 µM)
In short, it runs like this:
(§1)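 Dosing by pin tool came one day after lung cancer cell lines were seeded in 1536-well plates, using either one drug or a fixed anchor-drug dose plus five library-drug doses (not always all listed) in √10 steps. After 5 days, nuclei were counted on 4× images. Relative viability is treated-well nuclei count divided by vehicle-well nuclei count, and values are medians of duplicate plates.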

Compound in the experiment “FH535 + Navitoclax”: CC1=C(C=CC(=C1)[N+](=O)[O-])NS(=O)(=O)C2=C(C=CC(=C2)Cl)Cl [FH535] + CC1(C)CCC(c2ccc(Cl)cc2)=C(CN2CCN(c3ccc(C(=O)NS(=O)(=O)c4ccc(N[C@H](CCN5CCOCC5)CSc5ccccc5)c(S(=O)(=O)C(F)(F)F)c4)cc3)CC2)C1 [Navitoclax] (partner 0.5 µM)
In short, it runs like this:
as §1

Compound in the experiment “FH535 + Dasatinib”: CC1=C(C=CC(=C1)[N+](=O)[O-])NS(=O)(=O)C2=C(C=CC(=C2)Cl)Cl [FH535] + Cc1nc(Nc2ncc(C(=O)Nc3c(C)cccc3Cl)s2)cc(N2CCN(CCO)CC2)n1 [Dasatinib] (partner 0.075 µM)
In short, it runs like this:
as §1

Compound in the experiment “FH535 + Trametinib”: CC1=C(C=CC(=C1)[N+](=O)[O-])NS(=O)(=O)C2=C(C=CC(=C2)Cl)Cl [FH535] + CC(=O)Nc1cccc(-n2c(=O)n(C3CC3)c(=O)c3c(Nc4ccc(I)cc4F)n(C)c(=O)c(C)c32)c1 [Trametinib] (partner 0.02 µM)
In short, it runs like this: as §1

Compound in the experiment “FH535 + Lapatinib”: CC1=C(C=CC(=C1)[N+](=O)[O-])NS(=O)(=O)C2=C(C=CC(=C2)Cl)Cl [FH535] + CS(=O)(=O)CCNCc1ccc(-c2ccc3ncnc(Nc4ccc(OCc5cccc(F)c5)c(Cl)c4)c3c2)o1 [Lapatinib] (partner 2 µM)
In short, it runs like this: as §1

Turning to NCI-H3122, the relative viability with FH535 + Foretinib (first compound 0.04 µM) worked out at 0.888; with FH535 + Foretinib (first compound 0.1265 µM) it was 0.901; with FH535 + Foretinib (first compound 0.4 µM), 0.924; with FH535 + Foretinib (first compound 1.265 µM), 0.931; in the experiment with FH535 + Navitoclax (first compound 0.04 µM), 1.02; in the experiment with FH535 + Navitoclax (first compound 0.1265 µM) it was 1.05. Further, the relative viability with FH535 + Navitoclax (first compound 0.4 µM) was found to be 1.01; in the experiment with FH535 + Navitoclax (first compound 1.265 µM), 0.947; with FH535 + Dasatinib (first compound 0.04 µM), 0.703; with FH535 + Dasatinib (first compound 0.1265 µM), 0.782; with FH535 + Dasatinib (first compound 0.4 µM), 0.713; with FH535 + Dasatinib (first compound 1.265 µM) it was 0.719. Moreover, the relative viability in the experiment with FH535 + Trametinib (first compound 0.04 µM) worked out at 0.188; with FH535 + Trametinib (first compound 0.1265 µM), 0.274; in the experiment with FH535 + Trametinib (first compound 0.4 µM), 0.2; with FH535 + Trametinib (first compound 1.265 µM), 0.22; with FH535 + Lapatinib (first compound 0.04 µM), 1.01; with FH535 + Lapatinib (first compound 0.1265 µM) it was 0.978. Also, the relative viability with FH535 + Lapatinib (first compound 0.4 µM) was 0.999; with FH535 + Lapatinib (first compound 1.265 µM) it was 0.89.
With PC-3 [JPC-3], the relative viability in the experiment with FH535 + Foretinib (first compound 0.04 µM) came out at 1; with FH535 + Foretinib (first compound 0.1265 µM), 1; in the experiment with FH535 + Foretinib (first compound 0.4 µM), 0.879; with FH535 + Foretinib (first compound 1.265 µM) it was 0.582; with FH535 + Navitoclax (first compound 0.04 µM), 0.778; with FH535 + Navitoclax (first compound 0.1265 µM), 0.753. In addition, the relative viability was found to be 0.762 with FH535 + Navitoclax (first compound 0.4 µM); 0.57 with FH535 + Navitoclax (first compound 1.265 µM); 1.05 with FH535 + Dasatinib (first compound 0.04 µM); 0.812 with FH535 + Dasatinib (first compound 0.1265 µM); 0.837 with FH535 + Dasatinib (first compound 0.4 µM); 0.749 in the experiment with FH535 + Dasatinib (first compound 1.265 µM). For the same cell line, the relative viability with FH535 + Trametinib (first compound 0.04 µM) was 0.726; with FH535 + Trametinib (first compound 0.1265 µM), 0.829; with FH535 + Trametinib (first compound 0.4 µM), 0.691; with FH535 + Trametinib (first compound 1.265 µM), 0.607; with FH535 + Lapatinib (first compound 0.04 µM), 0.405; with FH535 + Lapatinib (first compound 0.1265 µM) it was 0.39. The values for the relative viability in the experiment with FH535 + Lapatinib (first compound 0.4 µM) and with FH535 + Lapatinib (first compound 1.265 µM) were 0.444 and 0.39, respectively.
For PC-14, the relative viability with FH535 + Foretinib (first compound 0.04 µM) amounted to 1.03; with FH535 + Foretinib (first compound 0.1265 µM) it was 1.06; in the experiment with FH535 + Foretinib (first compound 0.4 µM) it was 0.982; with FH535 + Foretinib (first compound 1.265 µM), 1.02; with FH535 + Navitoclax (first compound 0.04 µM), 0.972; with FH535 + Navitoclax (first compound 0.1265 µM), 1.1. In addition, the relative viability with FH535 + Navitoclax (first compound 0.4 µM) was found to be 1.01; in the experiment with FH535 + Navitoclax (first compound 1.265 µM) it was 0.941; with FH535 + Dasatinib (first compound 0.04 µM) it was 0.282; with FH535 + Dasatinib (first compound 0.1265 µM) it was 0.287; with FH535 + Dasatinib (first compound 0.4 µM), 0.251; with FH535 + Dasatinib (first compound 1.265 µM), 0.245. The relative viability in the experiment with FH535 + Trametinib (first compound 0.04 µM) is 0.652; with FH535 + Trametinib (first compound 0.1265 µM), 0.815; with FH535 + Trametinib (first compound 0.4 µM) it was 0.895; with FH535 + Trametinib (first compound 1.265 µM), 0.693; with FH535 + Lapatinib (first compound 0.04 µM), 0.365; with FH535 + Lapatinib (first compound 0.1265 µM), 0.318. Besides, the relative viability with FH535 + Lapatinib (first compound 0.4 µM) was 0.376; with FH535 + Lapatinib (first compound 1.265 µM) it was 0.313.
As to RERF-LC-KJ, the relative viability with FH535 + Foretinib (first compound 0.04 µM) turned out to be 0.927; with FH535 + Foretinib (first compound 0.1265 µM), 0.895; in the experiment with FH535 + Foretinib (first compound 0.4 µM), 0.869; in the experiment with FH535 + Foretinib (first compound 1.265 µM), 0.787; with FH535 + Navitoclax (first compound 0.04 µM), 1.15; with FH535 + Navitoclax (first compound 0.1265 µM), 0.784. The relative viability with FH535 + Navitoclax (first compound 0.4 µM) came out at 1.11; in the experiment with FH535 + Navitoclax (first compound 1.265 µM) it was 0.719; with FH535 + Dasatinib (first compound 0.04 µM), 0.845; with FH535 + Dasatinib (first compound 0.1265 µM), 0.805; with FH535 + Dasatinib (first compound 0.4 µM) it was 0.747; with FH535 + Dasatinib (first compound 1.265 µM), 0.502. Further, the relative viability in the experiment with FH535 + Trametinib (first compound 0.04 µM) amounted to 0.862; with FH535 + Trametinib (first compound 0.1265 µM), 0.921; in the experiment with FH535 + Trametinib (first compound 0.4 µM), 0.869; in the experiment with FH535 + Trametinib (first compound 1.265 µM) it was 0.744; with FH535 + Lapatinib (first compound 0.04 µM), 0.916; in the experiment with FH535 + Lapatinib (first compound 0.1265 µM) it was 0.884. In addition, the relative viability was 0.824 in the experiment with FH535 + Lapatinib (first compound 0.4 µM) and 0.714 in the experiment with FH535 + Lapatinib (first compound 1.265 µM).

The values are drawn from the supplement of paper PMC10307832.
